Measurements from publication PMC3997506, “Novel PPAR Pan Agonist, ZBH Ameliorates Hyperlipidemia and Insulin Resistance in High Fat Diet Induced Hyperlipidemic Hamster” (PLoS ONE, 2014).

Columns and labels:
hPPARα = biological target: T1, hPPARα (Homo sapiens, UniProt Q07869); assay: In vitro transactivation assay, GAL4-hPPAR luciferase reporter in HEK-293 cells; type: cell-based
T1 sequence (Q07869 200-468 limits assumed): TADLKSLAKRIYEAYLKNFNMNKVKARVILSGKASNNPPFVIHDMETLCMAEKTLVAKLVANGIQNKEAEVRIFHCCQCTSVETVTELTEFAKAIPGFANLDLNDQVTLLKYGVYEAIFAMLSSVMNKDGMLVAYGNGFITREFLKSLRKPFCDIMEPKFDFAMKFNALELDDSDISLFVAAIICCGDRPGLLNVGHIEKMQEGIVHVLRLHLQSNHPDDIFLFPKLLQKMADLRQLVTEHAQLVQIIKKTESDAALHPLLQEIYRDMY
Protocol: (§1) Transactivation of PPARs was analyzed in a cell-based luciferase reporter assay using HEK-293 cells transiently transfected to express hPPAR-GAL4 chimeric receptors with plasmids GAL4-hPPAR α, γ, or δ, and pUAS (5x)-tk-luc receptor vector as previously described. 24 h after transfection, cells were treated with the indicated compounds, followed by the measurement of luciferase activity 24 h later. Mean values represent those obtained from at least three independent experiments performed in triplicate and normalized by the Renilla luciferase reading.
(§2) HEK-293 cells transiently transfected to express hPPAR-GAL4 chimeric receptors with plasmids GAL4-hPPAR α, γ, or δ, and pUAS (5x)-tk-luc receptor vector. 24 h after transfection, cells were treated with the indicated compounds at various concentrations followed by the measurement of luciferase activity 24 h after treatment. The results shown are the mean values obtained from at least three independent experiments performed in triplicate normalized by the Renilla luciferase reading.

hPPARδ = biological target: T2, hPPARδ (Homo sapiens, UniProt Q03181); assay: as above; type: cell-based; settings: HEK-293, 24 h treatment
T2 sequence (Q03181 171-441 limits assumed): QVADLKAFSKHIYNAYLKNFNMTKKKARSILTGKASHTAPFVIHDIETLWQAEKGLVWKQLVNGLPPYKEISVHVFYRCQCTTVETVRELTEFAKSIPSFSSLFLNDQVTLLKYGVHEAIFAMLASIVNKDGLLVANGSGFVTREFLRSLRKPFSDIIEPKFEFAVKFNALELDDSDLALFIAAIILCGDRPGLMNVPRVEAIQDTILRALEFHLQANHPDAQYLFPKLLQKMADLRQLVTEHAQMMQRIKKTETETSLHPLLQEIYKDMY
Protocol: as §1, §2

hPPARγ = biological target: T3, hPPARγ (Homo sapiens, UniProt P37231); assay: as above; type: cell-based; settings: HEK-293, 24 h treatment
T3 sequence (P37231 238-505 limits assumed): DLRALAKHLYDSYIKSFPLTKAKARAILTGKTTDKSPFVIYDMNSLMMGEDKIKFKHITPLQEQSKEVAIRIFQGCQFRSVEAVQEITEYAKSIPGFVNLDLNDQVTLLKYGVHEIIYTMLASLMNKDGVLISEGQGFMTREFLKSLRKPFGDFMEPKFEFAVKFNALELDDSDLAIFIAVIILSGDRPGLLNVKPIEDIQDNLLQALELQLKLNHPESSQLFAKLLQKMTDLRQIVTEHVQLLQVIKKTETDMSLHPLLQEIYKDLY
Protocol: as §1, §2

SIRT1 mRNA = assay: Quantitative real-time PCR of tissues of hyperlipidemic hamsters; type: in vivo, golden Syrian hamsters (Mesocricetus auratus); settings: short-term (3 days) and chronic (5 weeks) treatment
Protocol: To determine the relative mRNA expression levels of lipid metabolism-related genes, total RNA was isolated from the liver, white adipose tissue (WAT) or muscle and real-time PCR was performed with the ABI PRISM 7300 sequence detection system (Applied Biosystems, Warrington, UK) as previously described. The relative amount of all mRNAs was calculated using the comparative CT method. Target gene expression is presented relative to β-actin expression.
Figure 9 Effects of ZBH on gene expression in hyperlipidemic hamsters. Relative gene expression of the indicated genes in the liver (A and B), WAT (C and D) and skeletal muscle (E and F) of hyperlipidemic hamsters following 3 days (A, C and E) and/or 5 weeks (B, D and F) of ZBH or BEZ administration was determined by QPCR. Results are normalized to β-actin and expressed as mean fold increase of mRNA ±SD compared to the normal hamsters (NC). n = 3. *P<0.05, **P<0.01, ***P<0.001 vs. MC group.

hPPARα-LBD = biological target: T4, hPPARα-LBD (Homo sapiens, UniProt Q07869); assay: Ligand binding assay with SPR (Biacore T100); settings: steady state affinity fitting
T4 construct: purchased Cayman chemical
T4 sequence (Q07869 239-466 limits assumed): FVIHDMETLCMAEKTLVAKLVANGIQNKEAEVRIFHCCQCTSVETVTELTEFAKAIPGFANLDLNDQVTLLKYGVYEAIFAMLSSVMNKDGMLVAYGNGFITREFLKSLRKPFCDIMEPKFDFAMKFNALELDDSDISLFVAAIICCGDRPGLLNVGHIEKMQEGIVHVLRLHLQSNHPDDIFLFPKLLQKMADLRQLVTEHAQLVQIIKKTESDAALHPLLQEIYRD
Protocol: (§3) The binding affinities of ZBH for PPARα-LBD, PPARδ-LBD or PPARγ-LBD (Cayman chemical, MI, USA) were assayed using SPR-based Biacore T100 (GE Healthcare/Biacore, Uppsala, Sweden) as described previously, [20].

hPPARδ-LBD = biological target: T5, hPPARδ-LBD (Homo sapiens, UniProt Q03181); assay: Ligand binding assay with SPR (Biacore T100); settings: steady state affinity fitting
T5 construct: purchased Cayman chemical
T5 sequence (Q03181 211-439 limits assumed): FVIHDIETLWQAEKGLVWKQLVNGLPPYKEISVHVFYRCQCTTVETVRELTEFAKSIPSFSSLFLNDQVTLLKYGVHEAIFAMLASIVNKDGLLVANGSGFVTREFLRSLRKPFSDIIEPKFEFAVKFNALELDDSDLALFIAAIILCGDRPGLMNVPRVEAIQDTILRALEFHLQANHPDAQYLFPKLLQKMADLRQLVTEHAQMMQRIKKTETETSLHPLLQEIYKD
Protocol: as §3

hPPARγ-LBD = biological target: T6, hPPARγ-LBD (Homo sapiens, UniProt P37231); assay: Ligand binding assay with SPR (Biacore T100); settings: steady state affinity fitting
T6 construct: purchased Cayman chemical
T6 sequence (P37231 238-503 limits assumed): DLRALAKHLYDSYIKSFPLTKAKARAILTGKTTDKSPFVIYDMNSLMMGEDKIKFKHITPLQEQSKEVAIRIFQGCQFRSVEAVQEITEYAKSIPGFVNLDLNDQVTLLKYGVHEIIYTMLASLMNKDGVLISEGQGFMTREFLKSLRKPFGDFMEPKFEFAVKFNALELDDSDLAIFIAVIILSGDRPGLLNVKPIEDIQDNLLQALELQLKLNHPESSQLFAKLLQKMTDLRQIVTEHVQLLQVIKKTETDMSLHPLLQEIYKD
Protocol: as §3

With `COc1ccc(/C=C/c2cc(OC)cc(OCCCC(C)(C)C(=O)O)c2)cc1` [ZBH, (E)-5-(3-methoxy-5-(4-methoxystyryl)phenoxy) -2,2-dimethylpentanoic acid] the “PPARα transactivation selectivity over other PPAR subtypes (EC50 fold)” value (hPPARα; Discussion) was 11 fold, the “maximal activation of PPARα” value (hPPARα; HEK-293) was “approximately 11 fold” and the EC50 (hPPARα; HEK-293, 24 h treatment) was 1.75 µM. For the same compound, the “PPARα activation potency (EC50) relative to bezafibrate” value (hPPARα; ZBH vs bezafibrate) was 21 fold, the “PPARα activation exceeds PPARγ activation” value (hPPARα; selectivity α over γ) was 14 fold and the “PPARα activation exceeds PPARδ activation” value (hPPARα; selectivity α over δ) was 11 fold. For the same compound, the EC50 (hPPARδ) was 19.2 µM, the EC50 (hPPARγ) was 25.4 µM and the “SIRT1 mRNA expression in liver, adipose tissue and skeletal muscle” value (SIRT1 mRNA) was “upregulated”. The Kd (hPPARα-LBD) was 0.826 µM, the Kd (hPPARδ-LBD) was 4.17 µM and the Kd (hPPARγ-LBD) was 3.9 µM.
